{"source": "paper PMC9866218", "about": "“Characterization and Chemical Synthesis of Cm39 (α-KTx 4.8): A Scorpion Toxin That Inhibits Voltage-Gated K^+ Channel KV1.2 and Small- and Intermediate-Conductance Ca^2+-Activated K^+ Channels KCa2.2 and KCa3.1” (Toxins, 2023)", "molecular_target": "T1, hKV1.2 (Homo sapiens, UniProt P16389)", "T1 construct": "GFP (vector pCMV6-AC-GFP); host or cells: CHO cells, transient transfection", "T1 sequence (P16389 whole entry)": "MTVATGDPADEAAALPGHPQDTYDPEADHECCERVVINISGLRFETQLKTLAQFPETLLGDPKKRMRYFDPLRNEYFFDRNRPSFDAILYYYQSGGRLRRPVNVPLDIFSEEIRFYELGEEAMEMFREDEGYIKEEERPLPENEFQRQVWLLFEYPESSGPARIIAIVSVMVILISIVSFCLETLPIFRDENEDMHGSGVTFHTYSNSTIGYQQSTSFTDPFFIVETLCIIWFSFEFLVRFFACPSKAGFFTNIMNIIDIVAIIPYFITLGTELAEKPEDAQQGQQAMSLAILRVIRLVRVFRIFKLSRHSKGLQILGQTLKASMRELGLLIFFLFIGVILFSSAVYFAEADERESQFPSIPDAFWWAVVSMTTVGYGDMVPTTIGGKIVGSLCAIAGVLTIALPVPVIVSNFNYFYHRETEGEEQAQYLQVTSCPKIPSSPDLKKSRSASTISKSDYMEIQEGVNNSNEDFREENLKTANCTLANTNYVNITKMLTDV", "test": "Conductance-voltage (G-V) relationship of KV1.2", "type": "cell-based", "experimental": "Mostly, scorpion toxins inhibit the KV channels by physically occluding the pore region of the channel thereby preventing the flow of K^+ ions. […] To confirm the blocking mechanism of Cm39 we determined the conductance–voltage (G–V) relationship for KV1.2 in the absence and presence of the toxin. Whole-cell currents of KV1.2 expressing CHO cells were recorded by applying the 300 ms long depolarization pulses ranging from −70 to +80 in 10 mV steps from Vh of −120 mV. […] The conductance values were calculated for each voltage step, normalized to the maximum conductance and plotted as a function of membrane potential (Em) as shown in Figure 4E. […] The midpoint voltage (V50) of the G–V relationship in the control solution (−1.0 ± 4.8, n = 4) was statistically similar to the V50 value at equilibrium block with 65 nM sCm39 (1.6 ± 4.0, n = 4) as shown in Figure 4F.\nThose plasmids which lack a fluorescent tag were co-transfected with a plasmid encoding GFP. Transfections were performed at a GFP:channel DNA molar ratio of 1:10 using the Lipofectamine 2000 kit (Invitrogen) according to the manufacturer’s protocol. GFP expressing cells were identified with the Nikon TE 2000U fluorescence microscope (Nikon, Tokyo, Japan) and used for current recordings (~60–70% success rate for co-transfection). Generally, currents were recorded 24 to 48 h post transfection.\nFor the measurement of KV1.x, mKCa1.1 and NaV1.x currents the extracellular solution was composed of (in mM) 145 NaCl, 5 KCl, 2.5 CaCl2, 1 MgCl2, 10 HEPES and 5.5 glucose, pH 7.35. In the HK-150 and Na^+-free bath solution bath all Na^+ was substituted by K^+ or Choline-Cl, respectively, other ingredients remained unchanged. In the various TEA^+-containing solutions, Na^+ was substituted by tetraethylammonium-Cl in equimolar concentration (Figure 3). The bath solution for KCa2.2 and KCa3.1 consisted of (in mM) 145 L-Aspartic Na^+ salt, 5 KCl, 2.5 CaCl2, 1 MgCl2, 5.5 glucose and 10 HEPES, pH 7.4 and for KV11.1 (in mM) 140 Choline-Cl, 5 KCl, 2 MgCl2, 2 CaCl2, 10 HEPES, 20 glucose and 0.1 CdCl2, pH 7.35. The osmolarity of bath solutions was ranging between 302 to 308 mOsm/L. A total of 0.1 mg/mL bovine serum albumin (BSA, Sigma-Aldrich, Budapest, Hungary) was added to all the bath solutions before the patch-clamp assay to avoid toxin adsorption to the plastic surfaces of the perfusion system. Internal or pipette solution for recording KV1.x and mKCa1.1 currents consisted of (in mM) 140 KF, 2 MgCl2, 1 CaCl2, 11 EGTA and 10 HEPES, pH 7.22. […]\nWhole-cell currents were recorded in voltage-clamped cells following standard protocols by using a Multiclamp 700B amplifier connected to a computer with Axon Digidata1440 digitizer and for data acquisition, Clampex 10.7 software was used (Molecular Devices). […]", "note": "Entries after “also recorded” stand apart in the source; their conditions may differ."}
{"smiles": "CC[C@H](C)[C@@H]1NC(=O)[C@H](C)NC(=O)[C@H](C)NC(=O)[C@H](CCCCN)NC(=O)[C@@H]2CSSC[C@@H](C(=O)N[C@@H](Cc3ccc(O)cc3)C(=O)N[C@@H](Cc3ccc(O)cc3)C(=O)O)NC(=O)[C@H](CCCCN)NC(=O)[C@@H]3CSSC[C@H](NC(=O)[C@H](CCC(=O)O)NC(=O)[C@H](CO)NC(=O)[C@H](CO)NC(=O)[C@H](CO)NC(=O)[C@H](CCCCN)NC(=O)[C@@H](NC(=O)[C@H](CCCCN)NC(=O)[C@H](Cc4c[nH]cn4)NC(=O)[C@H](CC(N)=O)NC(=O)[C@@H](NC(=O)[C@H](Cc4ccccc4)NC(=O)[C@@H](N)[C@@H](C)O)[C@@H](C)CC)CSSC[C@H](NC(=O)[C@H](CCCCN)NC(=O)CNC(=O)[C@H](CO)NC(=O)[C@H](C)NC(=O)[C@H](CCCNC(=N)N)NC(=O)CNC1=O)C(=O)N[C@@H]([C@@H](C)CC)C(=O)N[C@@H](CC(N)=O)C(=O)N[C@@H](CO)C(=O)N[C@@H]([C@@H](C)O)C(=O)N3)C(=O)N[C@@H](CC(C)C)C(=O)N1CCC[C@H]1C(=O)N[C@@H](C)C(=O)N2", "note": "[Cm39]", "values": [{"measurement": "effect on voltage dependence of steady-state activation (conductance–voltage relationship)", "setting": "65 nM, CHO cells", "result": "not altered; also recorded: completely insensitive"}, {"measurement": "effect on voltage dependence of steady-state activation (conductance–voltage relationship)", "setting": "65 nM, CHO cells, listed as sCm9", "result": "did not affect the voltage dependence of steady-state activation"}, {"measurement": "Mann–Whitney p, V50 with vs without toxin", "setting": "65 nM, ns = not significant", "result": 0.89}, {"measurement": "midpoint voltage V50 of the G–V relationship", "setting": "equilibrium block with 65 nM sCm39, n = 4, control solution −1.0 ± 4.8, n = 4, CHO cells, ± SEM", "result": "1.6 ± 4.0"}]}
